Measured values as given in patent US8507506B2, “Theophylline derivative inhibits osteoporosis” (Kaohsiung Medical University, priority 2011, dated 2013).
Marks after values point to notes of the source that are not given here.

Legend:
Format in all cases: cell-based
[1] = test system: IL-10 secretion by RAW264.7 cells; assay: ELISA, amount of IL-10; conditions: RAW264.7, ELISA, increasing dose, FIG. 7(B)
Method: Under RANKL stimulation, mononuclear RAW264.7 cells can secrete pro-inflammatory cytokines such as TNF-α, IL-1, IL-6, etc. ELISA is used to measure that KMUP-1 influences RANKL to induce the secretion of pro-inflammatory cytokines. […] 10^5 cells were plated per well in 24-well plates. […] After 24 hours reaction, the reaction fluid was centrifuged (13,000 rpm, 4° C., 20 minutes), and then the supernatant was tasted by ELISA kit (R&D system and eBioscience™) to detect the amount of TNF-α, IL-1β, IL-6, and IL-10. The experimental process is followed with the instructions of the kit.

[2] = test system: MMP-9 mRNA in RAW264.7 cells; assay: RT-PCR, RANKL-induced mRNA expression of MMP-9; conditions: for RANKL-induced mRNA expression level of MMP-9: RAW264.7 cells, 24 hours, CTL 100%, mean ± SEM
Text: (§1) The culture medium was discarded. […] [table] f) Running • A.

[3] = test system: Fra-1 mRNA in RAW264.7 cells; assay: RT-PCR, RANKL-induced mRNA expression of Fra-1; conditions: for RANKL-induced mRNA expression level of Fra-1: RAW264.7 cells, 24 hours, CTL 100%, mean ± SEM
Text: as §1

[4] = test system: Akt phosphorylation in RAW264.7 cells; assay: Western blot, phosphorylation of Akt induced by RANKL; conditions: 10 ng/ml RANKL for 30 minutes, dose dependent, FIG. 17
Method: RANKL can activate PI3K/Akt pathway to maintain the existence and the proliferation of osteoclast-like cells and prevent the apoptosis. The Akt phosphorylation level which is induced by RANKL is examined at different time points. The induced Akt phosphorylation is most apparent when it is induced by 10 ng/ml RANKL for 30 minutes. Therefore, 30 minutes are used to be the time point for inducing Akt phosphoryaltion. […] The proteins were collected by scraping and were centrifuged (13,000 rpm, 4° C., 30 minutes). The supernatant was stored in an eppendorf in −80° C. • c) Concentrations of the proteins were examined by Bio-Red DC Protein Assay. After knowing the concentrations, the proteins were diluted to specific concentrations by adding ddH2O. One forth volume of the diluted proteins of sample buffer was added into the diluted proteins and was put in boiled water for 5 min and then was chilled on ice for 5 minutes. After short time centrifugation, the diluted proteins could be injected into wells of a gel. The gel was run at 100 V for 10 minutes until the proteins were driven to the intersection between a loading gel and a running gel. Then, the voltage was swopped to 200 V for 40 minutes. • d) A PVDF membrane was immersed in Methanol for 2 minutes. After two washes in ddH2O, the membrane was immersed in transfer buffer for 15 minutes. […]

[5] = test system: MMP-9 protein in RAW264.7 cells; assay: Western blot, amount of MMP-9 protein induced by RANKL; conditions: RANKL 24 hours, FIG. 19
Method: KMUP-1 influences there major up-stream signal transduction pathways which are related to RANK/RANKL. Western blot is used to estimate the amount of matrix metalloproteinase (MMP)-2 and MMP-9 which are related to the dissolution of osteoclast-like cells, and the enzyme activity of MMP-2 and MMP-9 are estimated via Gelatin Zymography. […] The proteins were collected by scraping and were centrifuged (13,000 rpm, 4° C., 30 minutes). The supernatant was stored in an eppendorf in −80° C. • c) Concentrations of the proteins were examined by Bio-Red DC Protein Assay. After knowing the concentrations, the proteins were diluted to specific concentrations by adding ddH2O. One forth volume of the diluted proteins of sample buffer was added into the diluted proteins and was put in boiled water for 5 min and then was chilled on ice for 5 minutes. After short time centrifugation, the diluted proteins could be injected into wells of a gel. The gel was run at 100 V for 10 minutes until the proteins were driven to the intersection between a loading gel and a running gel. Then, the voltage was swopped to 200 V for 40 minutes. • d) A PVDF membrane was immersed in Methanol for 2 minutes. After two washes in ddH2O, the membrane was immersed in transfer buffer for 15 minutes. A SDS-PAGE was put on the membrane, and wet paper was flanked them. […]

[6] = 10 ng/ml RANKL, summary of Table 1

Cn1c(=O)c2c(ncn2CCN2CCN(c3ccccc3Cl)CC2)n(C)c1=O [KMUP-1, 7-[2-[4-(2-Chlorophenyl)piperazin-1-yl]ethyl] theophylline]
amount of anti-inflammatory cytokine IL-10 [1]: can raise the amount of anti-inflammatory cytokines, IL-10 | effect on mRNA expression of MMP-9 induced by RANKL (in words) [2, 6]: inhibits the mRNA expression | RANKL-induced mRNA expression level of MMP-9 ([2]; RANKL 10 ng/ml + KMUP-1 1 μM): 1732.4 ± 168.9% | RANKL-induced mRNA expression level of MMP-9 ([2]; RANKL 10 ng/ml + KMUP-1 2.5 μM): 1619.9 ± 179.8% | RANKL-induced mRNA expression level of MMP-9 ([2]; RANKL 10 ng/ml + KMUP-1 5 μM): 1570.9 ± 159.3% ^b | RANKL-induced mRNA expression level of MMP-9 ([2]; RANKL 10 ng/ml + KMUP-1 7.5 μM): 1439.8 ± 188.8% ^b | RANKL-induced mRNA expression level of MMP-9 ([2]; RANKL 10 ng/ml + KMUP-1 10 μM): 1372.0 ± 175.6% ^b | effect on mRNA expression of Fra-1 induced by RANKL (in words) [3, 6]: inhibits the mRNA expression | RANKL-induced mRNA expression level of Fra-1 ([3]; RANKL 10 ng/ml + KMUP-1 1 μM): 244.1 ± 38.9% ^b | RANKL-induced mRNA expression level of Fra-1 ([3]; RANKL 10 ng/ml + KMUP-1 2.5 μM): 285.1 ± 44.8% ^b | RANKL-induced mRNA expression level of Fra-1 ([3]; RANKL 10 ng/ml + KMUP-1 5 μM): 310.1 ± 56.3% ^b | RANKL-induced mRNA expression level of Fra-1 ([3]; RANKL 10 ng/ml + KMUP-1 7.5 μM): 238.7 ± 49.9% ^b | RANKL-induced mRNA expression level of Fra-1 ([3]; RANKL 10 ng/ml + KMUP-1 10 μM): 265.2 ± 64.1% ^b | phosphorylation of Akt induced by RANKL [4]: can efficiently inhibit phosphorylation of Akt induced by RANKL | amount of MMP-9 protein induced by RANKL [5]: can efficiently inhibit the amount of MMP-2 and MMP-9 proteins
